Test results from patent publication US11873298B2, “Compounds and uses thereof” (JANSSEN PHARMACEUTICA NV, priority 2017, dated 2024).
Several values for one entry are separate records, joined by “and”; a condition that tells them apart may be missing. Equal entries are not always repeated.

Columns and labels:
Format in all cases: cell-based
Ole1 = target: T1, Ole1 (Saccharomyces cerevisiae, UniProt P21147); test: Growth inhibition of yeast strain expressing Ole1 as sole desaturase; details: yeast strain expressing Ole1 as sole desaturase
T1 construct: expressed in transfected cells; host or cells: S. cerevisiae ole1Δ strain (W303 pdr1Δ pdr3Δ background), plasmid pRS316 with TDH3 promoter and CYC1 terminator
T1 sequence (P21147 1-510): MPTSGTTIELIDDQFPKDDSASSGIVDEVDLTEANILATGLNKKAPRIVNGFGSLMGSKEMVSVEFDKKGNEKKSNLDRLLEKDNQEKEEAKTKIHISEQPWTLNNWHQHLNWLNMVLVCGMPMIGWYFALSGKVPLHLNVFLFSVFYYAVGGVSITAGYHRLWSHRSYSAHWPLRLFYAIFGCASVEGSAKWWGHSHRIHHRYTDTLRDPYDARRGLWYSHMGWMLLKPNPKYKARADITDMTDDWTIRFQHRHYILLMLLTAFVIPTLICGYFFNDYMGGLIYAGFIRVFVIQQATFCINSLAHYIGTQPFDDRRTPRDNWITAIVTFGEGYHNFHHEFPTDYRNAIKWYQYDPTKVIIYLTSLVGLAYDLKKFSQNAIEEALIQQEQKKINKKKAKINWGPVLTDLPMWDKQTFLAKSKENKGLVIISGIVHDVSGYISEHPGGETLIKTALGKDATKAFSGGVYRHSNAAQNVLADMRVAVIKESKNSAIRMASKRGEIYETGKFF
In short: (§1)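 OD600 growth read-out. ole1Δ yeast, pdr1Δ pdr3Δ, with Ole1/SCD1/SCD5 on a plasmid; SX-Ura media throughout; 2× cell density 0.02 in CSM-Galactose; DMSO compound dilutions; humidified 30° C.; Ole1 stopped at 24 h, SCD1/SCD5 at 40 h.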

SCD1 = target: T2, SCD1 (Homo sapiens, UniProt O00767); test: Growth inhibition of humanized yeast strain expressing SCD1 as sole desaturase; details: humanized yeast strain expressing SCD1
T2 construct: host or cells: S. cerevisiae ole1Δ strain (W303 pdr1Δ pdr3Δ background), plasmid pRS316 with TDH3 promoter and CYC1 terminator
T2 sequence (O00767 1-359): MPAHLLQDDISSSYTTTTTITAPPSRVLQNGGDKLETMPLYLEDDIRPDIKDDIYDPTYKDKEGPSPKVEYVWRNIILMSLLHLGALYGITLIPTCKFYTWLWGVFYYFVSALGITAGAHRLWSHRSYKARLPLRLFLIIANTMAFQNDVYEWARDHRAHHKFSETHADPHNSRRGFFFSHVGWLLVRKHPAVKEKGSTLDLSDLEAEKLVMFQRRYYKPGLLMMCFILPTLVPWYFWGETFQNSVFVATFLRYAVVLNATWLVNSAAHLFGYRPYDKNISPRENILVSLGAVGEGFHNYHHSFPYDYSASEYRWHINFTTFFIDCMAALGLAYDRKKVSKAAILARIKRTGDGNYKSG
In short: as §1

SCD5 = target: T3, SCD5 (Homo sapiens, UniProt Q86SK9); test: Growth inhibition of humanized yeast strain expressing SCD5 as sole desaturase; details: humanized yeast strain expressing SCD5
T3 construct: host or cells: S. cerevisiae ole1Δ strain (W303 pdr1Δ pdr3Δ background), plasmid pRS316 with TDH3 promoter and CYC1 terminator
T3 sequence (Q86SK9 1-330): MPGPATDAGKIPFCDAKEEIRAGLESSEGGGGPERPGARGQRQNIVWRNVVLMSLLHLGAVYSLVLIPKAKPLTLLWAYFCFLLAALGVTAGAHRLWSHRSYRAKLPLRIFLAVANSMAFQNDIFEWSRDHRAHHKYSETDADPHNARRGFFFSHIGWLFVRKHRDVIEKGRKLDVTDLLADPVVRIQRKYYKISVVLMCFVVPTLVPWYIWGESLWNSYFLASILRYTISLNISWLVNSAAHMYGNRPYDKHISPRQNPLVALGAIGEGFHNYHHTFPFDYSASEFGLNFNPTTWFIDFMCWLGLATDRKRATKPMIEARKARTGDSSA
In short: as §1

Structure (SMILES)	IC50 (Ole1) [µM]	OLE1 % Max Inhibition (Ole1)	IC50 (SCD1) [µM]	SCD1 % Max Inhibition (SCD1)	IC50 (SCD5) [µM]	SCD5 % Max Inhibition (SCD5) [%]
CCOc1ccc(-c2noc(C3CCN(C(=O)CN4Cc5cc(F)ccc5C4=O)CC3)n2)cc1OC [Compound 176]	> 45	3.62%	> 45	107.22%	> 45	83.50
O=C(c1ccccc1)N1CCC(c2nc(N3CC4(CCCO4)C3)no2)CC1 [Compound 335]	> 45	81.5%		54.0%	> 45	61.2
Cc1nn(C)c2cc(-c3noc(C4CCN(C(=O)CNC(=O)c5ccsn5)CC4)n3)ccc12 [Compound 226]	> 45	1.24%	> 45	33.20%	> 45	0.69
N#Cc1cccc(N2CC(C(=O)N3CCC(c4nc(N5CC6(COC6)C5)no4)CC3)CC2=O)c1 (centres unmarked) [Compound 332]	> 45	77.0%	> 45	59.7%	> 45	31.5
CC(C)(CO)n1cc2ccc(-c3noc(C4CCN(C(=O)CNC(=O)c5ccccc5)CC4)n3)cc2n1 [Compound 202]	> 45	94.93%	> 45	74.09%	> 45	74.20
CCOC(=O)C(C)(C)n1cc2ccc(-c3noc(C4CCN(C(=O)C5CC(=O)N(c6ccccc6)C5)CC4)n3)cc2n1 (centres unmarked) [Compound 193]	> 45	89.35%	> 45	80.72%	> 45	85.76
O=C(NCC(=O)N1CCC(c2nc(-c3ccc4nonc4c3)no2)CC1)c1ccccc1 [Compound 163]	> 45	71.84%	36.5	55.99%	> 45	24.77
O=C(C1CC(=O)N(c2cccc(Cl)c2)C1)N1CCC(c2nc(N3CCOCC3)no2)CC1 (centres unmarked) [Compound 323]	> 45	89.1%	> 45	76.1%	> 45	73.5
Cc1nn(C)c2cc(-c3noc(C4CCN(C(=O)C5CC(=O)N(c6ccccc6C#N)C5)CC4)n3)ccc12 (centres unmarked) [Compound 170]	40.4	67.97%	> 45	103.19%	> 45	85.13
Cc1nn(C)c2cc(-c3nc([C@@H]4C[C@H]5CC[C@@H](C4)N5C(=O)OC(C)(C)C)no3)ccc12 [Compound 341]	> 45	91.7%	> 45	45.2%	> 45	45.6
Cc1nn(C)c2cc(-c3noc(C4CCN(C(=O)[C@H](NC(=O)c5ccccc5)C5CC5)CC4)n3)ccc12 [Compound 191]	> 45	89.31%	> 45	81.79%	> 45	6.72
Cc1nn(C)c2cc(-c3noc(C4CCN(C(=O)CC(C)(C)C)CC4)n3)ccc12 [Compound 263]	> 45	8.71%		18.81%	> 45	7.20
Cc1nn(C)c2cc(-c3nsc(C4CCN(C(=O)CNC(=O)c5ccccn5)CC4)n3)ccc12 [Compound 232]	> 45	4.20%	> 45	81.04%	41.1	51.17
Cn1ncc2ccc(-c3noc(C4CCN(C(=O)c5ccnc(-c6ccccc6)c5)CC4)n3)cc21 [Compound 208]	> 45	96.63%	> 45	14.04%	> 45	5.68
O=C(C1CC(=O)N(c2ccccc2)C1)N1CCC(c2nc(-c3ccc4nonc4c3)no2)CC1 (centres unmarked) [Compound 164]	> 45	96.96%	> 45	102.20%	> 45	73.90
COc1cc(-c2noc(C3CCN(C(=O)CNC(=O)c4ccccc4)CC3)n2)ccc1OC1CC1 [Compound 249]	> 45	88.69%		80.12%	41.7	61.88
Cc1nn(C)c2cc(-c3noc(C4CCN(C(=O)C5CNC(=O)C5)CC4)n3)ccc12 (centres unmarked) [Compound 126]	> 45	73.29%	> 45	69.80%	30	79.08
Cc1nn(C)c2cc(-c3noc(C4CCN(C(=O)C5CC(=O)N(c6ccc(F)cc6)C5)CC4)n3)ccc12 (centres unmarked) [Compound 188]	> 45	4.70%	> 45	78.63%	> 45	4.51
Cc1nn(C)c2cc(-c3nc(C4CCN(C(=O)OC(C)(C)C)CC4)no3)ccc12 [Compound 319]	> 45	74.25% and 63.83% and 86.3% and 84.75%	≥ 45	97.10% and 89.16% and 81.7% and 75.42%	> 45	
CCOc1ccc(-c2noc(C3CCN(C(=O)CN4Cc5ccc(F)cc5C4=O)CC3)n2)cc1OC [Compound 177]	> 45	40.70%	> 45	97.88%	> 45	86.13
CCOc1cc(-c2noc(C3CCN(C(=O)CNC(=O)c4ccccc4)CC3)n2)ccc1OC [Compound 199]	> 45	24.34%	> 45	27.85%	> 45	3.87
